According to patent publication US20220017468A1, “ISOQUINOLINE COMPOUNDS AND THEIR USE IN TREATING AhR IMBALANCE” (Dermavant Sciences GmbH, priority 2020, published 2022):

Legend:
[1] = system: primary human cell culture platforms; experiment: BioMAP Diversity Plus profiling; type: cell-based; details: profiles overlaid
[2] = molecular target: T1, AhR (Homo sapiens, UniProt P35869); experiment: CYP1A1-bla LS-180 AhR agonist assay; type: cell-based; details: CYP1A1-bla LS-180 cells, ~20 hrs
T1 construct: LS-180 cells stably transfected with a CYP1A1 promoter-linked beta-lactamase gene reporter construct; endogenous in cells; host or cells: CYP1A1-bla LS-180 cells
T1 sequence (P35869 11-848): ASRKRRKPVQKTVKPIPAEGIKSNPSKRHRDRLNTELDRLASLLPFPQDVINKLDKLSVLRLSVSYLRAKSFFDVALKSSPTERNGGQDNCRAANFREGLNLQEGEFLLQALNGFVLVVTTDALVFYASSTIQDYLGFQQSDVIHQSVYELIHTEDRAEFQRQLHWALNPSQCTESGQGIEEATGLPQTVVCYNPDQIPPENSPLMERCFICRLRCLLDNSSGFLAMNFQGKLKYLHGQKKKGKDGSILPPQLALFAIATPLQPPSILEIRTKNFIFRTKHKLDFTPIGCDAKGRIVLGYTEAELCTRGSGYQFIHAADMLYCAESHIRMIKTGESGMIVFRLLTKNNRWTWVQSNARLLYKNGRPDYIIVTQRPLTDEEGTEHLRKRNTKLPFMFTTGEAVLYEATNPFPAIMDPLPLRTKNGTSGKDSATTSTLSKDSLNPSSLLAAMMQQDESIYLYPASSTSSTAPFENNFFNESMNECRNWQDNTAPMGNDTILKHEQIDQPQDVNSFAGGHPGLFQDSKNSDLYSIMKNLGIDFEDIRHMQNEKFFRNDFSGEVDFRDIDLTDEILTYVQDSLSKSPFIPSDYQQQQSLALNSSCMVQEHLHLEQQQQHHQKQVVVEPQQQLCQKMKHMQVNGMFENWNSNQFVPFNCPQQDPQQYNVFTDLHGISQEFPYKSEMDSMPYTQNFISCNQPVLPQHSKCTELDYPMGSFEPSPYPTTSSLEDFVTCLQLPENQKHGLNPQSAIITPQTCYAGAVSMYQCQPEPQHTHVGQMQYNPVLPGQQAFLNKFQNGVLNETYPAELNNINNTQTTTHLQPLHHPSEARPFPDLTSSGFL
Method: LS-180 cells stably transfected with a CYP1A1 promoter-linked beta-lactamase gene reporter construct (termed CYP1A1-bla LS-180 cells) were used to characterize the ability of compounds to activate AhR. In brief, AhR activity was measured using the LiveBLAzer assay kit which utilizes a beta lactamase (bla) reporter gene downstream of CYP1A1 promoter, which metabolizes its substrate to give a fluorescent readout. For the agonist assay, CYP1A1-bla LS-180 cells were treated with increasing concentrations of compound over a 100,000-fold concentration range.
CYP1A1-bla LS-180 cells in exponential growth phase were washed twice with DPBS then seeded into 96-well microplates (50,000 cells/well) and allowed to adhere. […] The LiveBLAzer FRET B/G β-lactamase substrate was added in the final hour of incubation and resulting blue/green fluorescence was measured using a 96-well microplate reader.
AhR activity was measured as a function of beta-lactamase expression using a fluorescence resonance energy transfer-based readout. TCDD and FICZ were used as controls to validate the system.

[3] = molecular target: T2, CB2 (Homo sapiens, UniProt P34972); experiment: fluorescence-based agonist assay using genetically modified yeast; type: cell-based; details: read-out: CB2 pEC50 (converted)
T2 construct: expressed in transfected cells
T2 sequence (P34972 whole entry, species assumed): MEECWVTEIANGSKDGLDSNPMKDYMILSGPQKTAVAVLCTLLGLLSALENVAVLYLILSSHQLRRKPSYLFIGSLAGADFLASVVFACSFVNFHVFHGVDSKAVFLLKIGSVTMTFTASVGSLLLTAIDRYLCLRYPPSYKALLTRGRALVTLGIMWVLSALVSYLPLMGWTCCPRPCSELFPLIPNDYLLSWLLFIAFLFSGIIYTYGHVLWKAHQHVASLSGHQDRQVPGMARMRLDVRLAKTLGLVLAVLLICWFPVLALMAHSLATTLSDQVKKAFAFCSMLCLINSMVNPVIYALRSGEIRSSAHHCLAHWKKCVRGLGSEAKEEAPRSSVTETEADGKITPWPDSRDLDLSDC

[4] = system: Nrf2; experiment: luciferase-based reporter assay for NQO1 gene expression; type: cell-based
[5] = system: IL-17A; experiment: CD4+ T cell IL17 assay; type: cell-based, human
Method: Therefore, compounds are evaluated for their ability to reduce IL-17 production from CD4+ T cells stimulated under Th17-skewing conditions. Cryopreserved human CD4^+ T cells (AllCells, LLC, Alameda, CA and Stemcell Technologies, Inc. Vancouver, Canada) were differentiated to the Th17 subtype by culturing for 5 days in CD3-coated tissue culture plates (2 μg/mL) in Iscove's modified Dulbecco's medium (IMDM) containing 10% HI-FBS, 55 μM 2-mercaptoethanol and soluble anti-CD28 (3 μg/mL) in the presence of a Th17 skewing cocktail, [IL-1β (10 ng/mL), IL-6 (30 ng/mL), TGFβ (0.5 ng/mL), IL-21 (10 ng/mL), IL-23 (10 ng/mL), anti-IFNγ (10 μg/mL) and anti-IL-4 (10 μg/mL)] in the presence or absence of serially diluted compounds. Secretion of IL-17 from polarized CD4+ T-cells was measured in the culture media using an MSD (Meso Scale Discovery) detection system following 5 day exposure toTh17 polarization reagents with and without compounds.

[6] = oxygen radical absorbance capacity (ORAC) test; type: biochemical; details: Trolox Equivalent Values
[7] = molecular target: T1, AhR; details: value reported by Invitrogen; cited from earlier work

Molecule | sIL-17 in BioMAP [1] | pEC50 [2] | EC50 [3] [nM] | Nrf2 pEC50 [4] | IC50 ([5]; T-cell, MSD-based readout of secreted IL-17A from Th17-polarized primary human CD4+ peripheral blood T cells, read-out: IL-17A pIC50 (converted)) [nM] | IL-17A production ([5]; Th17-skewing conditions, applied throughout culture) | Hydroxyl-radical [6] [TEV] | Peroxyl radical-hydro [6] [TEV] | Peroxyl radical-lipo [6] [TEV] | Peroxynitrite [6] [TEV] | Singlet oxygen [6] [TEV] | Superoxide anion [6] [TEV] | Total ORAC value [6] [TEV] | pEC50 reported by Invitrogen [7]
6-formylindolo(3,2-b)carbazole [FICZ, reference compound] | not seen | 6.82 |  |  |  |  |  |  |  |  |  |  |  | 
CC(C)c1c(O)cc(/C=C/c2ccccc2)cc1O [tapinarof] | not seen |  | 158 | pEC50 = 7.6 | 3.16 | suppression of IL-17A | 1067 | 4663 | 2164 | 140 | 3581 | 11241 | 22855 | 
Clc1cc2c(cc1Cl)Oc1cc(Cl)c(Cl)cc1O2 [TCDD] |  | 10.34 |  |  |  |  |  |  |  |  |  |  |  | 9.70
